Data as given in ChEMBL document CHEMBL1201862, “PubChem BioAssay data set” (2004).
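Compound exposure: 48 hours, 5 concentrations, 96-well plates. GI50 marks 50% less growth.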 Calls of active or inactive are those of the source. Cut-off read from the data, not from the text of the source: active = GI50 up to about 1.1 µM and inactive = higher.

Tests used:
Experiment in all cases: inhibition of tumour cell growth, NCI panel, 48 h
CCRF-CEM = system: CCRF-CEM
UACC-257 = system: UACC-257
DLD-1 = system: DLD-1
SF-295 = system: SF-295
NCI-H23 = system: NCI-H23
HCC 2998 = system: HCC 2998
RPMI-8226 = system: RPMI-8226
RXF 631 = system: RXF 631
SF-268 = system: SF-268
DMS-273 = system: DMS-273
HL-60 = system: HL-60
XF498 = system: XF498
SK-OV-3 = system: SK-OV-3
SF-539 = system: SF-539
HT-29 = system: HT-29
KM12 = system: KM12
CAKI-1 = system: CAKI-1
NCI-H522 = system: NCI-H522
IGROV-1 = system: IGROV-1
NCI-H226 = system: NCI-H226
A498 = system: A498
UACC-62 = system: UACC-62
UO-31 = system: UO-31
MOLT-4 = system: MOLT-4
SNB-78 = system: SNB-78
EKVX = system: EKVX
M14 = system: M14
SNB-75 = system: SNB-75
M19-MEL = system: M19-MEL
OVCAR-8 = system: OVCAR-8
SK-MEL-2 = system: SK-MEL-2
SW-620 = system: SW-620
Malme-3M = system: Malme-3M
TK-10 = system: TK-10
HCT-15 = system: HCT-15
786-0 = system: 786-0
HCT-116 = system: HCT-116
COLO 205 = system: COLO 205
K562 = system: K562
HOP-62 = system: HOP-62
OVCAR-4 = system: OVCAR-4
SK-MEL-28 = system: SK-MEL-28
HOP-92 = system: HOP-92
A549 = system: A549
LXFL 529 = system: LXFL 529
OVCAR-3 = system: OVCAR-3
SN12C = system: SN12C
SNB-19 = system: SNB-19
SR = system: SR
DMS-114 = system: DMS-114
OVCAR-5 = system: OVCAR-5
KM-20L2 = system: KM-20L2
U-251 = system: U-251
SK-MEL-5 = system: SK-MEL-5
ACHN = system: ACHN
LOX IMVI = system: LOX IMVI
NCI-H460 = system: NCI-H460
RXF 393 = system: RXF 393
HOP-18 = system: HOP-18

Measured: GI50

Cc1cc(=O)c2c([nH]1)NS(=O)(=O)NC2=O
inactive: CCRF-CEM > 100 µM | UACC-257 > 100 µM | DLD-1 > 100 µM | SF-295 > 100 µM | NCI-H23 > 100 µM | HCC 2998 > 100 µM | RPMI-8226 > 100 µM | RXF 631 > 100 µM | SF-268 > 100 µM | DMS-273 > 100 µM | HL-60 > 100 µM | XF498 > 100 µM | SK-OV-3 > 100 µM | SF-539 > 100 µM | HT-29 > 100 µM | KM12 > 100 µM | CAKI-1 > 100 µM | NCI-H522 > 100 µM | IGROV-1 > 100 µM | NCI-H226 > 100 µM | A498 > 100 µM | UACC-62 > 100 µM | UO-31 > 100 µM | MOLT-4 > 100 µM | SNB-78 > 100 µM | EKVX > 100 µM | M14 > 100 µM | SNB-75 > 100 µM | M19-MEL > 100 µM | OVCAR-8 > 100 µM | SK-MEL-2 > 100 µM | SW-620 > 100 µM | Malme-3M > 100 µM | TK-10 > 100 µM | 786-0 > 100 µM | HCT-116 > 100 µM | COLO 205 > 100 µM | K562 > 100 µM | HOP-62 > 100 µM | OVCAR-4 > 100 µM | SK-MEL-28 > 100 µM | HOP-92 > 100 µM | A549 > 100 µM | LXFL 529 > 100 µM | OVCAR-3 > 100 µM | SN12C > 100 µM | SNB-19 > 100 µM | SR > 100 µM
> 100 µM: HCT-15

Cc1ccc(/N=N/C(C(=O)c2ccccc2)C(=O)c2ccccc2)cc1
inactive: CCRF-CEM 10.9 µM | UACC-257 29.4 µM | DLD-1 21.9 µM | SF-295 24.7 µM | NCI-H23 20.5 µM | HCC 2998 38.3 µM | RPMI-8226 16.9 µM | RXF 631 35.8 µM | SF-268 29.8 µM | DMS-114 20.1 µM | DMS-273 19.2 µM | HL-60 9.08 µM | OVCAR-5 22.2 µM | XF498 20.1 µM | SK-OV-3 47.1 µM | SF-539 22.4 µM | HT-29 22 µM | KM12 36.1 µM | CAKI-1 27.4 µM | KM-20L2 25.3 µM | NCI-H522 17.3 µM | IGROV-1 31.2 µM | U-251 18 µM | NCI-H226 17.6 µM | A498 27.4 µM | UACC-62 16.4 µM | UO-31 14.8 µM | MOLT-4 10.2 µM | SK-MEL-5 17.7 µM | EKVX 30.7 µM | M14 15.7 µM | SNB-75 20.6 µM | M19-MEL 16 µM | OVCAR-8 28.6 µM | SK-MEL-2 19.5 µM | SW-620 29.1 µM | Malme-3M 29.9 µM | TK-10 41.4 µM | ACHN 26.6 µM | 786-0 16.7 µM | HCT-116 14.9 µM | COLO 205 22.6 µM | K562 17.7 µM | HOP-62 21.1 µM | OVCAR-4 13.1 µM | SK-MEL-28 31.6 µM | HOP-92 13.6 µM | A549 27.3 µM | LXFL 529 14.5 µM | OVCAR-3 29.1 µM | SN12C 18.7 µM | SNB-19 19 µM
14.2 µM: HCT-15

CCN1C2=NC(=O)N(C)C(=O)C2(Cl)C(C(SC)S(=O)(=O)c2ccc(C)cc2)c2ccccc21 (centres undefined)
inactive: CCRF-CEM 5.62 µM | UACC-257 23.6 µM | DLD-1 33.4 µM | SF-295 51.8 µM | NCI-H23 20 µM | HCC 2998 > 100 µM | RPMI-8226 12.7 µM | RXF 631 21.4 µM | SF-268 39.2 µM | DMS-114 41.1 µM | DMS-273 31.6 µM | HL-60 4.2 µM | OVCAR-5 > 100 µM | XF498 49.5 µM | SK-OV-3 > 100 µM | SF-539 37.5 µM | HT-29 34.8 µM | CAKI-1 34 µM | KM-20L2 57.8 µM | NCI-H522 11.8 µM | IGROV-1 76.9 µM | U-251 79.8 µM | NCI-H226 32.4 µM | A498 > 100 µM | UACC-62 44.7 µM | UO-31 19.9 µM | MOLT-4 3.7 µM | SNB-78 24.2 µM | SK-MEL-5 35.6 µM | EKVX > 100 µM | M14 24.2 µM | SNB-75 20.7 µM | M19-MEL 24.7 µM | OVCAR-8 21.2 µM | SK-MEL-2 55.3 µM | SW-620 31.6 µM | Malme-3M 47.3 µM | TK-10 > 100 µM | 786-0 25.1 µM | HCT-116 20.1 µM | COLO 205 31.6 µM | K562 20.7 µM | HOP-62 > 100 µM | OVCAR-4 22.9 µM | SK-MEL-28 24.3 µM | HOP-92 30.6 µM | A549 85.1 µM | LOX IMVI 31.3 µM | LXFL 529 23.3 µM | OVCAR-3 24.1 µM | SN12C 61 µM | SNB-19 51.9 µM | NCI-H460 83.4 µM

CCOC(=O)C(C(O)c1ccc([N+](=O)[O-])cc1)P(=O)(OCC)OCC (centres undefined)
inactive: CCRF-CEM 35.5 µM | DLD-1 > 100 µM | SF-295 > 100 µM | NCI-H23 > 100 µM | HCC 2998 > 100 µM | RPMI-8226 32.9 µM | RXF 631 > 100 µM | SF-268 > 100 µM | DMS-273 > 100 µM | HL-60 16.7 µM | OVCAR-5 > 100 µM | XF498 > 100 µM | RXF 393 36.5 µM | SF-539 > 100 µM | HT-29 > 100 µM | KM12 > 100 µM | CAKI-1 > 100 µM | KM-20L2 > 100 µM | NCI-H522 29.2 µM | IGROV-1 > 100 µM | U-251 > 100 µM | NCI-H226 > 100 µM | A498 > 100 µM | UACC-62 52.1 µM | MOLT-4 57.9 µM | SK-MEL-5 99.8 µM | EKVX > 100 µM | M14 > 100 µM | SNB-75 35.4 µM | M19-MEL 77.6 µM | OVCAR-8 95.1 µM | SK-MEL-2 > 100 µM | SW-620 57.3 µM | Malme-3M > 100 µM | TK-10 > 100 µM | ACHN > 100 µM | 786-0 > 100 µM | HCT-116 > 100 µM | K562 31.3 µM | HOP-62 > 100 µM | HOP-18 > 100 µM | OVCAR-4 > 100 µM | SK-MEL-28 > 100 µM | HOP-92 34 µM | A549 > 100 µM | LOX IMVI 72.9 µM | LXFL 529 > 100 µM | OVCAR-3 > 100 µM | SN12C > 100 µM | SNB-19 > 100 µM | NCI-H460 > 100 µM
> 100 µM: HCT-15

Cc1cc(O)nc(CNC(=O)c2ccc3ccccc3c2)n1
> 100 µM: HCT-15
inactive: CCRF-CEM > 100 µM | UACC-257 > 100 µM | DLD-1 > 100 µM | SF-295 > 100 µM | NCI-H23 > 100 µM | HCC 2998 > 100 µM | RXF 631 > 100 µM | SF-268 > 100 µM | DMS-114 > 100 µM | DMS-273 > 100 µM | HL-60 > 100 µM | OVCAR-5 > 100 µM | XF498 > 100 µM | RXF 393 > 100 µM | SK-OV-3 > 100 µM | SF-539 > 100 µM | HT-29 > 100 µM | KM12 > 100 µM | CAKI-1 > 100 µM | KM-20L2 > 100 µM | NCI-H522 > 100 µM | IGROV-1 > 100 µM | U-251 > 100 µM | NCI-H226 > 100 µM | A498 > 100 µM | UACC-62 > 100 µM | UO-31 > 100 µM | MOLT-4 > 100 µM | SK-MEL-5 > 100 µM | EKVX > 100 µM | M14 > 100 µM | SNB-75 > 100 µM | M19-MEL > 100 µM | OVCAR-8 > 100 µM | SK-MEL-2 > 100 µM | SW-620 > 100 µM | Malme-3M > 100 µM | TK-10 > 100 µM | ACHN > 100 µM | 786-0 > 100 µM | HCT-116 > 100 µM | COLO 205 > 100 µM | K562 > 100 µM | HOP-62 > 100 µM | HOP-18 > 100 µM | OVCAR-4 > 100 µM | SK-MEL-28 > 100 µM | HOP-92 > 100 µM | A549 > 100 µM | LOX IMVI > 100 µM | LXFL 529 > 100 µM | OVCAR-3 > 100 µM | SN12C > 100 µM | SNB-19 > 100 µM | SR > 100 µM | NCI-H460 > 100 µM
